≈ marks a conversion by molar mass, not a printed value. Like-named read-outs stand apart in the source and are kept apart here.
Legend:
[1] = system: Staphylococcus aureus 209P JC-1; experiment: General antibacterial activity (MIC) against Staphylococcus aureus 209P JC-1; format: cell-based; details: for MIC: Staphylococcus aureus, read-out: antibacterial activities (MIC)
Text: (§1) With respect to compounds (I) of the present invention obtained as described above, their general antibacterial activities and their antibacterial activities (MIC) against various methicillin-resistant strains of Staphylococcus aureus (methicillin-resistant Staphylococcus aureus: MRSA) were investigated. The results will be shown in Table 1, in which the test compounds are indicated by the numbers of their working examples to be described subsequently. Further, as the general antibacterial activities, those of Staphylococcus aureus 209P JC-1 and Escherichia coli NIHJ JC-2 were used.
(§2) (The unit for the figures in the table is µg/mℓ.)

[2] = system: MRSA 31; experiment: Antibacterial activity (MIC) against MRSA 31; format: cell-based, methicillin-resistant Staphylococcus aureus; details: for MIC: Staphylococcus aureus, MRSA, read-out: antibacterial activities (MIC)
Text: as §1, §2

[3] = system: MRSA 33; experiment: Antibacterial activity (MIC) against MRSA 33; format: cell-based, methicillin-resistant Staphylococcus aureus; details: for MIC: Staphylococcus aureus, MRSA, read-out: antibacterial activities (MIC)
Text: as §1, §2

[4] = system: Escherichia coli NIHJ JC-2; experiment: General antibacterial activity (MIC) against Escherichia coli NIHJ JC-2; format: cell-based; details: for MIC: Escherichia coli; for antibacterial activities (MIC): NIHJ JC-2, 10^6 cfu/mℓ
Text: as §1, §2

[5] = NIHJJC2, NIHJ JC-2, 10^6 cfu/mℓ, read-out: antibacterial activities (MIC)

Compound: C[C@H](O)[C@@H]1C(=O)N2C(C(=O)O)=C(SCc3ccccc3)S[C@H]12 [Ex. 42, (5R,6R)-6-((S)-1-hydroxyethyl)-2-benzylthiopenem-3-carboxylic acid]
- MIC ([1]; 209P JC-1, 10^6 cfu/mℓ): 0.1 µg/mL (≈ 0.296 µM)
- MIC ([2]; MRSA 31, 10^6 cfu/mℓ): 3.13 µg/mL (≈ 9.28 µM)
- MIC ([3]; MRSA 33, 10^6 cfu/mℓ): 3.13 µg/mL (≈ 9.28 µM)
- MIC [4, 5]: 6.25 µg/mL (≈ 18.5 µM)

Compound: C[C@H](O)[C@@H]1C(=O)N2C(C(=O)O)=C(SCCc3ccccc3)S[C@H]12 [Ex. 43, (5R,6R)-6-((S)-1-hydroxyethyl)-2-phenethylthiopenem-3-carboxylic acid]
- MIC ([1]; 209P JC-1, 10^6 cfu/mℓ): 0.2 µg/mL (≈ 0.569 µM)
- MIC ([2]; MRSA 31, 10^6 cfu/mℓ): 6.25 µg/mL (≈ 17.8 µM)
- MIC ([3]; MRSA 33, 10^6 cfu/mℓ): 6.25 µg/mL (≈ 17.8 µM)
- MIC [4, 5]: 12.5 µg/mL (≈ 35.6 µM)

Compound: C[C@H](O)[C@@H]1C(=O)N2C(C(=O)O)=C(S[C@@H]3CN[C@H](CO)C3)S[C@H]12 [Ex. 94, (5R,6R)-6-((S)-1-hydroxyethyl)-2-[(2S,4S)-2-hydroxymethylpyrrolidin-4-ylthio]penem-3-carboxylic acid]
- MIC ([1]; 209P JC-1, 10^6 cfu/mℓ): 0.1 µg/mL (≈ 0.289 µM)
- MIC ([2]; MRSA 31, 10^6 cfu/mℓ): 6.25 µg/mL (≈ 18 µM)
- MIC ([3]; MRSA 33, 10^6 cfu/mℓ): 6.25 µg/mL (≈ 18 µM)
- MIC [4, 5]: 0.2 µg/mL (≈ 0.577 µM)

Compound: C[C@H](O)[C@@H]1C(=O)N2C(C(=O)O)=C(S[C@H]3CCN(CCF)C3)S[C@H]12 [Ex. 79, (5R,6R)-6-((S)-l-hydroxyethyl)-2-[(S)-1-(2-fluoroethyl)pyrrolidin-3-yl]thiopenem-3-carboxylic acid]
- MIC ([1]; 209P JC-1, 10^6 cfu/mℓ): 0.1 µg/mL (≈ 0.276 µM)
- MIC ([2]; MRSA 31, 10^6 cfu/mℓ): 6.25 µg/mL (≈ 17.2 µM)
- MIC ([3]; MRSA 33, 10^6 cfu/mℓ): 6.25 µg/mL (≈ 17.2 µM)
- MIC [4, 5]: 0.1 µg/mL (≈ 0.276 µM)

Compound: C[C@H](O)[C@@H]1C(=O)N2C(C(=O)O)=C(SCC(=O)NCc3ccccc3)S[C@H]12 [Ex. 13, (5R,6R)-2-(N-benzylcarbamoylmethyl)thio-6-((S)-1-hydroxyethyl)penem-3-carboxylic acid]
- MIC ([1]; 209P JC-1, 10^6 cfu/mℓ): 0.39 µg/mL (≈ 0.989 µM)
- MIC ([2]; MRSA 31, 10^6 cfu/mℓ): 12.5 µg/mL (≈ 31.7 µM)
- MIC ([3]; MRSA 33, 10^6 cfu/mℓ): 12.5 µg/mL (≈ 31.7 µM)
- MIC [4, 5]: 3.13 µg/mL (≈ 7.93 µM)

Compound: C[C@H](O)[C@@H]1C(=O)N2C(C(=O)O)=C(SC3Cc4ccccc4C3)S[C@H]12 [Ex. 71, (5R,6R)-6-((S)-1-hydroxyethyl)-2-(2-indanyl)thiopenem-3-carboxylic acid]
- MIC ([1]; 209P JC-1, 10^6 cfu/mℓ): 0.05 µg/mL (≈ 0.138 µM)
- MIC ([2]; MRSA 31, 10^6 cfu/mℓ): 3.13 µg/mL (≈ 8.61 µM)
- MIC ([3]; MRSA 33, 10^6 cfu/mℓ): 1.56 µg/mL (≈ 4.29 µM)
- MIC [4, 5]: 6.25 µg/mL (≈ 17.2 µM)

Compound: CC(=N)N1CC[C@H](SC2=C(C(=O)O)N3C(=O)[C@@H]([C@H](C)O)[C@H]3S2)C1 [Ex. 89, (5R,6R)-6-((S)-1-hydroxyethyl)-2-[(S)-1-(1-iminoethyl)pyrrolidin-3-ylthio]penem-3-carboxylic acid]
- MIC ([1]; 209P JC-1, 10^6 cfu/mℓ): 0.1 µg/mL (≈ 0.28 µM)
- MIC ([2]; MRSA 31, 10^6 cfu/mℓ): 6.25 µg/mL (≈ 17.5 µM)
- MIC ([3]; MRSA 33, 10^6 cfu/mℓ): 6.25 µg/mL (≈ 17.5 µM)
- MIC [4, 5]: 0.39 µg/mL (≈ 1.09 µM)

Compound: CCSC1=C(C(=O)O)N2C(=O)[C@@H]([C@H](C)O)[C@H]2S1 [Ex. 41, (5R,6R)-6-((S)-1-hydroxyethyl)-2-ethylthiopenem-3-carboxylic acid]
- MIC ([1]; 209P JC-1, 10^6 cfu/mℓ): 0.2 µg/mL (≈ 0.726 µM)
- MIC ([2]; MRSA 31, 10^6 cfu/mℓ): 12.5 µg/mL (≈ 45.4 µM)
- MIC ([3]; MRSA 33, 10^6 cfu/mℓ): 12.5 µg/mL (≈ 45.4 µM)
- MIC [4, 5]: 0.2 µg/mL (≈ 0.726 µM)

Compound: CCCSC1=C(C(=O)O)N2C(=O)[C@@H]([C@H](C)O)[C@H]2S1 [Ex. 46, (5R,6R)-6-((S)-1-hydroxyethyl)-2-propylthiopenem-3-carboxylic acid]
- MIC ([1]; 209P JC-1, 10^6 cfu/mℓ): 0.39 µg/mL (≈ 1.35 µM)
- MIC ([2]; MRSA 31, 10^6 cfu/mℓ): 12.5 µg/mL (≈ 43.2 µM)
- MIC ([3]; MRSA 33, 10^6 cfu/mℓ): 12.5 µg/mL (≈ 43.2 µM)
- MIC [4, 5]: 0.78 µg/mL (≈ 2.7 µM)

Compound: (5R,6R)-6-((S)-1-fluoroethyl)-2-methylthiopenem-3-carboxylic acid [Ex. 99]
- antibacterial activities (MIC) ([1]; 209P JC-1, 10^6 cfu/mℓ): 0.1 µg/mL
- antibacterial activities (MIC) ([2]; MRSA 31, 10^6 cfu/mℓ): 6.25 µg/mL
- antibacterial activities (MIC) ([3]; MRSA 33, 10^6 cfu/mℓ): 6.25 µg/mL
- antibacterial activities (MIC) [4]: 0.78 µg/mL

Compound: CC(=N)N1CC[C@H](SC2=C(C(=O)O)N3C(=O)[C@H]([C@H](C)F)[C@H]3S2)C1 [Ex. 106, (5R,6R)-6-((S)-1-fluoroethyl)-2-[(S)-1-(1-iminoethyl)pyrrolidin-3-ylthio]penem-3-carboxylic acid]
- MIC ([1]; 209P JC-1, 10^6 cfu/mℓ): 0.05 µg/mL (≈ 0.139 µM)
- MIC ([2]; MRSA 31, 10^6 cfu/mℓ): 3.13 µg/mL (≈ 8.71 µM)
- MIC ([3]; MRSA 33, 10^6 cfu/mℓ): 3.13 µg/mL (≈ 8.71 µM)
- MIC [4, 5]: 1.56 µg/mL (≈ 4.34 µM)

Compound: C[C@H](O)[C@@H]1C(=O)N2C(C(=O)O)=C(S[C@H]3CCN(CC(=O)c4ccccc4)C3)S[C@H]12 [Ex. 88, (5R,6R)-6-((S)-1-hydroxyethyl)-2-[(S)-1-(2-oxo-2-phenylethyl)pyrrolidin-3-ylthio]penem-3-carboxylic acid]
- MIC ([1]; 209P JC-1, 10^6 cfu/mℓ): 0.2 µg/mL (≈ 0.46 µM)
- MIC ([2]; MRSA 31, 10^6 cfu/mℓ): 6.25 µg/mL (≈ 14.4 µM)
- MIC ([3]; MRSA 33, 10^6 cfu/mℓ): 6.25 µg/mL (≈ 14.4 µM)
- MIC [4, 5]: 0.39 µg/mL (≈ 0.898 µM)

Compound: C[C@H](F)[C@H]1C(=O)N2C(C(=O)O)=C(SC3CCN(c4ccccc4)C3)S[C@H]12 (single isomer, unassigned) [Ex. 107 (Isomer B)]
- antibacterial activities (MIC) ([1]; 209P JC-1, 10^6 cfu/mℓ): 0.1 µg/mL
- antibacterial activities (MIC) ([2]; MRSA 31, 10^6 cfu/mℓ): 3.13 µg/mL
- antibacterial activities (MIC) ([3]; MRSA 33, 10^6 cfu/mℓ): 3.13 µg/mL
- antibacterial activities (MIC) [4]: 50 µg/mL

Compound: C[C@H](F)[C@H]1C(=O)N2C(C(=O)O)=C(SC3CCN(c4ccccc4)C3)S[C@H]12 (single isomer, unassigned) [Ex. 107 (Isomer A)]
- MIC ([1]; 209P JC-1, 10^6 cfu/mℓ): 0.1 µg/mL (≈ 0.253 µM)
- antibacterial activities (MIC) ([2]; MRSA 31, 10^6 cfu/mℓ): 1.56 µg/mL
- antibacterial activities (MIC) ([3]; MRSA 33, 10^6 cfu/mℓ): 1.56 µg/mL
- MIC [4, 5]: > 25 µg/mL

Compound: C[C@H](O)[C@@H]1C(=O)N2C(C(=O)O)=C(SCCF)S[C@H]12 [Ex. 48, (5R,6R)-6-((S)-1-hydroxyethyl)-2-(2-fluoroethyl)thiopenem-3-carboxylic acid]
- MIC ([1]; 209P): 0.2 µg/mL (≈ 0.682 µM)
- MIC [2]: 12.5 µg/mL (≈ 42.6 µM)
- MIC [3]: 12.5 µg/mL (≈ 42.6 µM)
- MIC ([4]; NIHJJC2, read-out: antibacterial activities (MIC)): 0.1 µg/mL (≈ 0.341 µM)

Compound: C[C@H](O)[C@@H]1C(=O)N2C(C(=O)O)=C(SC3CCc4ccccc43)S[C@H]12 (stereo partly drawn) [Ex. 81, (5R,6R)-6-((S)-1-hydroxyethyl)-2-(1-indanyl)thiopenem-3-carboxylic acid]
- MIC ([1]; 209P JC-1, 10^6 cfu/mℓ): 0.1 µg/mL (≈ 0.275 µM)
- MIC ([2]; MRSA 31, 10^6 cfu/mℓ): 3.13 µg/mL (≈ 8.61 µM)
- MIC ([3]; MRSA 33, 10^6 cfu/mℓ): 3.13 µg/mL (≈ 8.61 µM)
- MIC [4, 5]: 6.25 µg/mL (≈ 17.2 µM)

Compound: C[C@H](O)[C@@H]1C(=O)N2C(C(=O)O)=C(SCc3ccc4ccccc4c3)S[C@H]12 [Ex. 76, (5R,6R)-6-((S)-1-hydroxyethyl)-2-(2-naphthyl)methylthiopenem-3-carboxylic acid]
- MIC ([1]; 209P JC-1, 10^6 cfu/mℓ): 0.1 µg/mL (≈ 0.258 µM)
- MIC ([2]; MRSA 31, 10^6 cfu/mℓ): 3.13 µg/mL (≈ 8.08 µM)
- MIC ([3]; MRSA 33, 10^6 cfu/mℓ): 3.13 µg/mL (≈ 8.08 µM)
- MIC [4, 5]: 12.5 µg/mL (≈ 32.3 µM)

Compound: C[C@H](O)[C@@H]1C(=O)N2C(C(=O)O)=C(SCCc3ccccn3)S[C@H]12 [Ex. 73, (5R,6R)-6-((S)-1-hydroxyethyl)-2-[2-(2-pyridyl)ethyl]thiopenem-3-carboxylic acid]
- MIC ([1]; 209P JC-1, 10^6 cfu/mℓ): 0.05 µg/mL (≈ 0.142 µM)
- MIC ([2]; MRSA 31, 10^6 cfu/mℓ): 6.25 µg/mL (≈ 17.7 µM)
- MIC ([3]; MRSA 33, 10^6 cfu/mℓ): 6.25 µg/mL (≈ 17.7 µM)
- MIC [4, 5]: 0.78 µg/mL (≈ 2.21 µM)

Compound: CC(C)SC1=C(C(=O)O)N2C(=O)[C@@H]([C@H](C)O)[C@H]2S1 [Ex. 47, (5R,6R)-6-((S)-1-hydroxyethyl)-2-(1-methylethyl)thiopenem-3-carboxylic acid]
- MIC ([1]; 209P JC-1, 10^6 cfu/mℓ): 0.2 µg/mL (≈ 0.691 µM)
- MIC ([2]; MRSA 31, 10^6 cfu/mℓ): 12.5 µg/mL (≈ 43.2 µM)
- MIC ([3]; MRSA 33, 10^6 cfu/mℓ): 12.5 µg/mL (≈ 43.2 µM)
- MIC [4, 5]: 0.2 µg/mL (≈ 0.691 µM)

Compound: CSC1=C(C(=O)O)N2C(=O)[C@@H]([C@H](C)O)[C@H]2S1 [Ex. 40, (5R,6R)-6-((S)-1-hydroxyethyl)-2-methylthiopenem-3-carboxylic acid]
- MIC ([1]; 209P JC-1, 10^6 cfu/mℓ): 0.39 µg/mL (≈ 1.49 µM)
- MIC ([2]; MRSA 31, 10^6 cfu/mℓ): 12.5 µg/mL (≈ 47.8 µM)
- MIC ([3]; MRSA 33, 10^6 cfu/mℓ): 12.5 µg/mL (≈ 47.8 µM)
- MIC [4, 5]: 0.39 µg/mL (≈ 1.49 µM)

— patent publication EP0774465A1, “Penem derivatives and antimicrobial agents containing the same” (priority 1995, dated 1997)
